# Columns and labels:
# hP2X7 = target: T1, hP2X7 (Homo sapiens, UniProt Q99572); assay: Intracellular Calcium Flux (FLIPR) Assay; type: cell-based; conditions: 1321N1 cells stably expressing human P2X7; agonist 100 μM BzATP; 20 min equilibration with antagonist; read-out: FLIPR pIC50 hP2X7-1321n1 (converted)
# T1 construct: 1321N1 cells stably expressing the full length human P2X7 gene (1321N1-hP2X7); expressed in transfected cells
# T1 sequence (Q99572 1-595): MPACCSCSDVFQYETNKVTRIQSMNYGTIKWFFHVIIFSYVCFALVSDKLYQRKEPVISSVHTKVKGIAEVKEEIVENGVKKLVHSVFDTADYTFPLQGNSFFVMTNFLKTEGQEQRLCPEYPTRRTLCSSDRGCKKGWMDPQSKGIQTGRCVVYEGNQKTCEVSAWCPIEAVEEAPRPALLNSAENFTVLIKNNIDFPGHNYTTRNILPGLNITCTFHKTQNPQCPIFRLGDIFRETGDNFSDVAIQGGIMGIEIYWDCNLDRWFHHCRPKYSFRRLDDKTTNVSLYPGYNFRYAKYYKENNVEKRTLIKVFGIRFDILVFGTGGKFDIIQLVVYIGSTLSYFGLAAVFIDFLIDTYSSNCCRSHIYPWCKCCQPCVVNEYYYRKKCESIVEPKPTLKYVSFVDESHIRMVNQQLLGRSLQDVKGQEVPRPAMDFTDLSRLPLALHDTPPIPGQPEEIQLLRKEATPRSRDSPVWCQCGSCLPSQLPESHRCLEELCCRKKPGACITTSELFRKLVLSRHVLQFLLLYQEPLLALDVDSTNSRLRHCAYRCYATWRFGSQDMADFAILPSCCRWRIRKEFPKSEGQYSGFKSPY
# Method: Stock solutions of compounds were prepared from powders as a 10 mM DMSO stock solution. These solutions were stored at RT during the two week period of these experiments to prevent freeze-thaw of the DMSO stocks. The DMSO stocks were added to the appropriate assay buffer at a concentration of 10 μM, and then diluted serially to the final concentrations that were tested. No observable precipitate was formed at any time during this process. The aqueous solutions of compounds as well as ATP (Sigma A7699) and BzATP (Sigma B6396) were prepared fresh for each day of experiment.
# 1321N1 cells stably expressing the full length human P2X7 gene (1321N1-hP2X7) and HEK293 cells stably expressing the full length rat P2X7 gene (HEK293-rP2X7) were obtained from the Roche Cell Culture Facility. 1321N1-hP2X7 cells were grown in Dulbecco's Modified Eagle's Medium (DMEM) high glucose supplemented with 10% FBS and 250 μg/mL G418. HEK293-rP2X7 cells were grown in DMEM/F-12 supplemented with 10% FBS, 1 mM CaCl2, 2 mM MgCl2, 2 mM L-Glutamine and 500 μg/ml G418. Cells were split such that they never became >70% confluent.
# On the day prior to the experiment, 1321N1-hP2X7 or HEK293-rP2X7 cells were released into suspension with calcium-free PBS+Versene and washed by centrifugation with calcium-free PBS to remove the Versene. Cells were resuspended in growth medium at a density of 2.5×10^5 cells/mL and seeded into black walled, clear bottom 96 well plates (50,000 cells/well) approximately 18 hr prior to intracellular calcium flux experiments.
# On the day of the experiment, plates were washed with FLIPR buffer (calcium- and magnesium-free Hank's Balanced Salt Solution (HBSS) supplemented with 10 mM Hepes, 2.5 mM probenecid and 2 mM calcium chloride) using a BIO-TEK 96 channel plate washer and incubated with […] fluo-3 dye at 37° C. for one hr. The dye was then removed by plate washing and the cells were allowed to equilibrate for 20 min at room temperature with antagonist or vehicle (FLIPR buffer). Agonist (100 μM BzATP final concentration for hP2X7; 5 μM BzATP final concentration or rP2X7) was added online with the FLIPR and fluorescence measurements made at 1 sec intervals for 60 sec followed by 3 sec intervals for a further 4 min (5 min total). A final addition of 5 μM ionomycin was made and the maximal BzATP-evoked fluorescence normalized to the maximal ionomycin-evoked fluorescence.
SMILES,melting point,IC50 (hP2X7)
"CCOc1ccccc1CNC(=O)[C@@H]1CCCN(c2cccc3c2C(=O)N(Cc2ccncc2)C3=O)C1 [Compound I-9, (R)-1-(1,3-Dioxo-2-pyridin-4-ylmethyl-2,3-dihydro-1H-isoindol-4-yl)-piperidine-3-carboxylic acid 2-ethoxy-benzylamide]",194 to 195 °C,955 nM
"COC[C@@H](C)N1Cc2c(ccc(Cl)c2NC(=O)Cc2ccc(F)c(C(F)(F)F)c2)C1=O [Compound I-21, N-[5-Chloro-2-((R)-2-methoxy-1-methyl-ethyl)-1-oxo-2,3-dihydro-1H-isoindol-4-yl]-2-(4-fluoro-3-trifluoromethyl-phenyl)-acetamide]",131 to 132 °C,389 nM
"O=C(NCc1ccccc1O)[C@@H]1CCCN(c2cccc3c2C(=O)N(Cc2ccncc2)C3=O)C1 [Compound I-11, (R)-1-(1,3-Dioxo-2-pyridin-4-ylmethyl-2,3-dihydro-1H-isoindol-4-yl)-piperidine-3-carboxylic acid 2-hydroxy-benzylamide]",181 to 182 °C,100 nM
"COc1ccccc1CNC(=O)C1CCCN(c2cccc3c2C(=O)N(Cc2ccncc2)C3=O)C1 (centres unmarked) [Compound I-1a, 1-(1,3-Dioxo-2-pyridin-4-ylmethyl-2,3-dihydro-1H-isoindol-4-yl)-piperidine-3-carboxylic acid 2-methoxy-benzylamide]",–,155 nM
"O=C(NCC12CC3CC(CC(C3)C1)C2)[C@@H]1CCCN(c2cccc3c2C(=O)N(Cc2ccncc2)C3=O)C1 [Compound I-3, (R)-1-(1,3-Dioxo-2-pyridin-4-ylmethyl-2,3-dihydro-1H-isoindol-4-yl)-piperidine-3-carboxylic acid (adamantan-1-ylmethyl)-amide]",–,107 nM
"COc1ccccc1CNC(=O)[C@@H]1CCCN(c2cccc3c2C(=O)N(CC2CCOCC2)C3=O)C1 [Compound I-5, (R)-1-[1,3-Dioxo-2-(tetrahydro-pyran-4-ylmethyl)-2,3-dihydro-1H-isoindol-4-yl]-piperidine-3-carboxylic acid 2-methoxy-benzylamide]",–,355 nM
"O=C(NCc1ccccc1F)[C@@H]1CCCN(c2cccc3c2C(=O)N(Cc2ccncc2)C3=O)C1 [Compound I-13, (R)-1-(1,3-Dioxo-2-pyridin-4-ylmethyl-2,3-dihydro-1H-isoindol-4-yl)-piperidine-3-carboxylic acid 2-fluoro-benzylamide]",196 to 197 °C,110 nM
"C[C@H](CO)N1Cc2c(ccc(Cl)c2NC(=O)CC23CC4CC(CC(C4)C2)C3)C1=O [Compound I-18a, 2-Adamantan-1-yl-N-[5-chloro-2-((R)-2-hydroxy-1-methyl-ethyl)-1-oxo-2,3-dihydro-1H-isoindol-4-yl]-acetamide]",–,39.8 nM
"COCCN1Cc2c(ccc(Cl)c2NC(=O)Cc2ccc(F)c(C(F)(F)F)c2)C1=O [Compound I-20, N-[5-Chloro-2-(2-methoxy-ethyl)-1-oxo-2,3-dihydro-1H-isoindol-4-yl]-2-(4-fluoro-3-trifluoromethyl-phenyl)-acetamide]",–,891 nM
"COc1ccccc1CNC(=O)[C@@H]1CCCN(c2cccc3c2C(=O)N(Cc2ccncc2)C3=O)C1 [Compound I-1b, (R)-1-(1,3-Dioxo-2-pyridin-4-ylmethyl-2,3-dihydro-1H-isoindol-4-yl)-piperidine-3-carboxylic acid 2-methoxy-benzylamide]",–,55 nM
"O=C(NCC1CCCCC1)[C@@H]1CCCN(c2cccc3c2C(=O)N(Cc2ccncc2)C3=O)C1 [Compound I-15, (R)-1-(1,3-Dioxo-2-pyridin-4-ylmethyl-2,3-dihydro-1H-isoindol-4-yl)-piperidine-3-carboxylic acid cyclohexylmethyl-amide]",172 to 173 °C,708 nM
"C[C@H](CO)N1Cc2c(NC(=O)CC34CC5CC(CC(C5)C3)C4)c(Cl)cc(Cl)c2C1=O [Compound I-18b, 2-Adamantan-1-yl-N-[5,7-dichloro-2-((R)-2-hydroxy-1-methyl-ethyl)-1-oxo-2,3-dihydro-1H-isoindol-4-yl]-acetamide]",–,537 nM
"O=C(NCc1cccs1)[C@@H]1CCCN(c2cccc3c2C(=O)N(Cc2ccncc2)C3=O)C1 [Compound I-8, (R)-1-(1,3-Dioxo-2-pyridin-4-ylmethyl-2,3-dihydro-1H-isoindol-4-yl)-piperidine-3-carboxylic acid (thiophen-2-ylmethyl)-amide]",193 to 194 °C,437 nM
"COc1cccc(CNC(=O)[C@@H]2CCCN(c3cccc4c3C(=O)N(Cc3ccncc3)C4=O)C2)c1OC [Compound I-10, (R)-1-(1,3-Dioxo-2-pyridin-4-ylmethyl-2,3-dihydro-1H-isoindol-4-yl)-piperidine-3-carboxylic acid 2,3-dimethoxy-benzylamide]",199 to 200 °C,182 nM
"COc1ccccc1NC(=O)[C@@H]1CCCN(c2cccc3c2C(=O)N(Cc2ccncc2)C3=O)C1 [Compound I-4, (R)-1-(1,3-Dioxo-2-pyridin-4-ylmethyl-2,3-dihydro-1H-isoindol-4-yl)-piperidine-3-carboxylic acid (2-methoxy-phenyl)-amide]",–,724 nM
"O=C(NCC1COCCO1)[C@@H]1CCCN(c2cccc3c2C(=O)N(Cc2ccncc2)C3=O)C1 (stereo partly drawn) [Compound I-14, (R)-1-(1,3-Dioxo-2-pyridin-4-ylmethyl-2,3-dihydro-1H-isoindol-4-yl)-piperidine-3-carboxylic acid ([1,4]dioxan-2-ylmethyl)-amide]",186 to 187 °C,912 nM
"COc1ccccc1CNC(=O)[C@H]1CCCN(c2cccc3c2C(=O)N(Cc2ccncc2)C3=O)C1 [Compound I-2, (S)-1-(1,3-Dioxo-2-pyridin-4-ylmethyl-2,3-dihydro-1H-isoindol-4-yl)-piperidine-3-carboxylic acid 2-methoxy-benzylamide]",–,741 nM
"COc1ccccc1CNC(=O)[C@@H]1CCCN(c2cccc3c2C(=O)N(Cc2cncs2)C3=O)C1 [Compound I-6, (R)-1-(1,3-Dioxo-2-thiazol-5-ylmethyl-2,3-dihydro-1H-isoindol-4-yl)-piperidine-3-carboxylic acid 2-methoxy-benzylamide]",–,417 nM
"CSc1ccccc1CNC(=O)[C@@H]1CCCN(c2cccc3c2C(=O)N(Cc2ccncc2)C3=O)C1 [Compound I-12, (R)-1-(1,3-Dioxo-2-pyridin-4-ylmethyl-2,3-dihydro-1H-isoindol-4-yl)-piperidine-3-carboxylic acid 2-methylsulfanyl-benzylamide]",–,30.9 nM
"CS(=O)(=O)c1ccccc1CNC(=O)[C@@H]1CCCN(c2cccc3c2C(=O)N(Cc2ccncc2)C3=O)C1 [Compound I-16, (R)-1-(1,3-Dioxo-2-pyridin-4-ylmethyl-2,3-dihydro-1H-isoindol-4-yl)-piperidine-3-carboxylic acid 2-methanesulfonyl-benzylamide]",101 to 102 °C,204 nM
"C[C@H](CO)N1Cc2c(ccc(Cl)c2NC(=O)Cc2ccc(F)c(C(F)(F)F)c2)C1=O [Compound I-17, N-[5-Chloro-2-((R)-2-hydroxy-1-methyl-ethyl)-1-oxo-2,3-dihydro-1H-isoindol-4-yl]-2-(4-fluoro-3-trifluoromethyl-phenyl)-acetamide]",–,174 nM
"O=C(NCc1ccccc1OC(F)(F)F)[C@@H]1CCCN(c2cccc3c2C(=O)N(Cc2ccncc2)C3=O)C1 [Compound I-7, (R)-1-(1,3-Dioxo-2-pyridin-4-ylmethyl-2,3-dihydro-1H-isoindol-4-yl)-piperidine-3-carboxylic acid 2-trifluoromethoxy-benzylamide]",197 to 198 °C,851 nM

# Source: patent publication US20120157494A1, “ISOINDOLYL COMPOUNDS” (priority 2010, published 2012)
